The results in this text go back to patent US20230089267A1, “Compositions and Methods For Reducing Immune Intolerance and Treating Autoimmune Disorders” (Lapix Therapeutics, Inc., priority 2021, published 2023).

One test has as its system NMO mouse model. Kind of test: AQP4-p201-p220-induced neuromyelitis optica mouse model, fundoscopy. The note with it: number of eyes since randomization, 3 μg SC daily, 20 eyes. It counts as in vivo, mice. How it is done:
NMO is a CNS autoimmune inflammatory demyelinating disease that causes optico-spinal disorder leading to paralysis and vision loss. NMO mouse model was established by using AQP4-p201-p220 peptide (from Genemed Synthesis Inc.). Briefly, C57BL/6 mice (n=30) were immunized on day 0 with 100 micrograms of the AQP4-p201-p220 peptide emulsified in CFA. Mice were injected subcutaneously at the tail base under anesthesia. On the day of injection (Day 0) and two days later, mice received intraperitoneal injection of pertussis toxin (PTx) in PBS at 200 ng/mouse/dose (0.1 ml).
Prior to immunizing the mice on day 0, both eyes of each of the mice were imaged by fundoscopy. Fundoscopy was employed to study (a) optic disc inflammation, and (b) retinal damage (exudates as evidence of inflammation). Mice were monitored for disease onset daily after one week of immunization (day 7) for clinical symptoms, as per the scoring system developed by Ramadan et al., Brain 2016. Mice with a score of 1.0 or any […] symptoms were immediately randomized into either group A or group B treatment regimens to receive up to 14 days of treatment. Group A (n=10) received Compound 2 3 μg SC daily, and Group B (n=8) served as a control and was treated with a placebo.
Fundoscopy was conducted on day 6 post-immunization and was later performed approximately once every four days, i.e., on days 9, 13, 16, 22, and 26. Each eye was scored for inflammation in the optic disc and retinal damage evident by the appearance of ‘exudates’ (blotchiness) in the fundus image. Eye samples were collected during the onset of disease and post-randomization after at least 9-12 days of treatment and on day 14 (end of study) to assess the histology of both the optic nerve and the retina.

Test [1] relates to FoxP3+/CD4+ T-cells (spleen). Nature of the test: Pharmacodynamics of a single ascending dose in mice, splenic T-cell phenotyping. Format: in vivo. The conditions noted are these: for percent of FoxP3+/CD4+ T-cells, mean: single dose, spleen five days after dose. As to the method:
All animal studies were conducted under IACUC number B2020-91 and in compliance with Tufts University/Tufts Medical Center & Human Nutrition Research Center on Aging. Animals were housed 4 per cage and had access to food and water ad libitum. Compound 2 was formulated with 10% DMSO in PBS buffer.
This study was designed to evaluate the PD effects of a single dose of Compound 2 in mice. Animals were administered a single oral gavage, as per their group assignment. Five days after the oral dose, animals were sacrificed, and their spleens were collected for T-cell phenotyping. FIG. 2A is a schematic diagram of the study design.
For ex vivo analysis, spleens were collected for splenocyte analysis, and prepared into a single-cell suspension for cellular phenotyping by flow cytometry. Cells were stained and gated for CD4. Percent FoxP3+/CD4+ T-cells and percent FoxP3+/NRP1+ were evaluated using flow cytometry. For dose-response analysis, dose versus response was fitted to 4- and 5-parameters, log-logistic models using the “dre” package in “R”. Both EC50 and EC90 were obtained by model fitting.

The subject of test [2] is human B-cells (CD19+CD71+IgM+). Nature of the test: Regulatory B-cell induction in human PBMCs. Format: cell-based. The note with it: 10 ng/ml, five days. As to the method: 2×10^5 Total PBMCs or T-cell depleted PBMCs were cultured in a 96-well plate in the presence of ascending doses of Compound 2 ranging from 0 to 10 ng/ml for five days. At day 5, cells were washed and stained for CD19, CD71 and IgM for 30 minutes on ice, then cells were washed with PBS, and stained with viability dye to exclude dead cells.

In test [3] the test system is FoxP3+/CD4+ T-cells in splenocytes from naïve C57BL/6 mice. Kind of test: In vitro dose-response, percent FoxP3+/CD4+ T-cells in murine splenocytes. It counts as cell-based. How it is done:
All animal studies were conducted under IACUC number B2020-91 and in compliance with Tufts University/Tufts Medical Center & Human Nutrition Research Center on Aging. Animals were housed four in a cage and had access to food and water ad libitum. Anti-FoxP3 and anti-CD4 for flow cytometry were obtained from eBioscience. Compounds 1-3 were formulated with 10% DMPC in PBS. PS liposomes were synthesized at a 30:70 PS:lipid molar ratio.
Splenocytes from naïve C57BL/6 mice were stained with CFSE, seeded at 2×10^5 cells/well, and dosed with each compound from 1e^−4 μM to 3.0e^−9 μM using a log 2 dilution scheme. Cells were incubated for 72 hours before phenotyping for FoxP3+/CD4+ T-cells. Flow cytometer analysis was performed to assess changes in percent FoxP3+/CD4+ T-cells as a function of compound and dose. Concentration versus response was fitted to a 4-parameter, log-logistic model using the “dre” package in “R”. Both EC50 and EC90 were obtained by model fitting.
Cells were observed via a microscope at the end of the incubation period. All cells looked healthy and suitable for flow cytometry analysis.
Table 2 summarizes EC50 and EC90 values obtained from the model fitting.

A further test relates to Th17 (RORγt) cells. Kind of test: Human PBMCs in Th17 polarizing environment, Foxp3 and RORγt expression. Format: cell-based. How it is done:
Total human PBMCs isolated from healthy human volunteers were cultured in vitro in a Thl7 polarizing environment as follows: • Day 0: 2×10^5 cells/well were incubated in a 96 round bottomed-well plate (final volume 200 μl) with (i) anti CD3/CD28 microbead for T-cell activation (1 bead/10 cells), (ii) 10 ng/ml IL-6, 2 ng/ml TGFβ and 10 ng/ml IL-23, and (iii) 10 μg/ml anti-IFNγ and 10 μg/ml anti-IL-4. • Day 4: Each well was split into two wells, and 100 μl of media containing the same cytokine/antibody cocktail used at day 0 was added to each well in the presence of ascending doses of Compound 2 (0, 0.1, 0.3, 1, and 3 ng/ml). • Day 9: Cells were washed and stained for surface staining (CD3, CD4), then viability dye to exclude dead cells. Intranuclear staining was performed after cell fixation and permeabilization for transcription factors Foxp3 and RORγt. Cells were washed and fixed for acquisition by Attune NXT flow cytometer. Data were analyzed by FlowJov10.

Setting [4] is: four-parameter dose-response model, single dose per mouse.
Where [5] appears, read: Mus musculus, T-cell, percent FoxP3+/CD4+ T-cells, 72 hours, 4-parameter log-logistic model fit.

By EC50 is commonly meant the concentration giving half of the maximal effect. Read a low EC50 as greater potency. The term EC90 denotes the point of the concentration-response curve where the effect stands at 90%. A low value points to an effect from little substance. On to `N[C@@H](CNC(=O)Cc1ccc(OCc2cccc3ccccc23)cc1)C(=O)O` [Compound 2, (S)-2-Amino-3-(2-(4-(naphthalen-1-ylmethoxy)phenyl)acetamido)propanoic acid], for which, in the test on NMO mouse model, the “Cleared/Clearing eyes (recovery)” value was determined as 4, the Maintained/No change worked out at 14 and the Worsening conditions came out at 0. Further, in test [1] (setting [4]), the “ED50 for FoxP3+/CD4+ T-cells” value worked out at 4.88 µg and the “ED90 for FoxP3+/CD4+ T-cells” value was 82.1 µg. For the same compound, in test [1] (from the lowest dose to the highest dose group), the “increase of the number of FoxP3+/CD4+ T-cells (T-reg)” value was 150%. Besides, in test [1] (highest dose group), the “percent of FoxP3+/CD4+ T-cells, mean” value came out at 25.4%. Moreover, in test [1] (lowest dose group), the “percent of FoxP3+/CD4+ T-cells, mean” value is recorded as 10.7%. The “percentage of B-reg (CD19+CD71+IgM+)” value in test [2] (T-cell depleted PBMCs) came to 14.0%. In test [2] (total PBMC cultures), the “percentage of B-reg (CD19+CD71+IgM+)” value stood at 17.5%. In test [3] (setting [5]), this compound yielded a half-maximal effective concentration (EC50) of 0.00602 nM and an EC90 of 0.0199 nM. For the same compound, the “mean FoxP3+/CD4+ T-cells, upper plateau, mean (SEM)” value in test [3] (high dose, from model fitting) is on record as 4.54 (0.14) %. In addition, the “dose-response behaviour of FoxP3+/CD4+ T-cells” value in test [3] (in words) is given as “showed a clear plateau”. The “mean FoxP3+/CD4+ T-cells, lower plateau, mean (SEM)” value in test [3] (low dose, from model fitting) is given as 2.20%. In addition, in the test with Th17 (RORγt) cells, the “decrease in RORγt cells” value turned out to be 80% and the “percentage of Th17, mean after treatment” value was determined as 1.1%.
